Measured values as given in US6368788B1 (priority 1987, dated 2002).

What was measured:
influenza = assay: Volunteers experimentally infected with influenza (Protocol I); details: human, in vivo
From the text: Thirty-four similarly infected volunteers (34) served as untreated controls. […] The hematological and immunological indices examined immediately following the period of treatment were restored to within the normal range.

[1] = test system: peripheral blood lymphocytes; assay: Protocol A3 Group 1A: chronic pyoderma; type: in vivo, human
From the text: Group 1A (a subgroup of Group 1) consisted of 32 patients (17 males and 15 females ranging from 17 to 42 years of age) with chronic pyococcal skin diseases including furunculosis, disseminated impetigo, multiple ecthymas, recurring osteofolliculitis, seborrhea adiposa, and concrete seborrhea complicated by vulgar or abscessing acne. Diseases were characterized by a chronic course or frequent relapses, and at the time of presentation for entry into the trial, all patients had received several prior courses of antibiotic therapy, none of which led to any detectable clinical improvement. Patients in Group 1A were randomly divided into two treatment groups, the first consisting of 16 patients treated with L-Glu-L-Trp according to Therapy A, below, and the second consisting of 16 patients treated (as a control) according to conventional therapeutic methods- i.e., Therapy B (below).
In treatment Protocol A, all patients received L-Glu-L-Trp in combination with antibiotics.
Therapy B (conventional therapy control): All patients in this protocol received the same antibiotics as in Therapy A and a nonspecific stimulatory agent, i.e., Thymogenin instead of L-Glu-L-Trp.
Local antibiotics were administered as follows: Ampicillin (4), oxacillin (4), Levomycetin (1), tetracycline (9), Rondomycin (2), deoxycycline (8), cephalexin (2), and Rifampicin (1).

[2] = test system: E-receptors on aged thymocytes; assay: Expression of E-receptors on aged thymocytes; type: cell-based, guinea pigs; details: for E-RFC (%): aged thymocytes
From the text: Effects of L-Glu-L-Trp on expression of E-receptors on “aged” thymocytes was investigated in a manner similar to that in EXAMPLE 26, above, but using thymocytes obtained from old male guinea pigs (700-800 g). In aged animals it is recognized that the percentage of thymocytes forming rosettes with rabbit erythrocytes is reduced, and cell surface E-receptors are likewise reduced. For these studies aged thymocytes were isolated in Medium 199 from 42 guinea pigs, and E-RFC determined as described by Stadecker, M. J., et al., J. Immunol. 111(8):4061-4065 (1973), incorporated herein by reference. L-Glu-L-Trp was dissolved in 0.9% (w/v) NaCl and added to cultures of thymocytes at concentrations of 1, 0.01, and 0.0001 mg/ml.

hepatitis B = assay: Children with chronic persistent hepatitis B; type: in vivo, human; parameters: T-Lymphocytes (E-RFC): unit not given here
Description: In accord with a USSR Ministry of Health decision 125 children suffering with chronic persistent hepatitis B were entered into this trial over a two month period. Group 1 consisted of 35 children who received decaris immunomodulatory therapy; Group 2, 38 children who received thymalin treatments; Group 3, […] who received L-Glu-L-Trp; and, Group 4, 32 children who received only conventional symptom specific therapy.
L-Glu-L-Trp was administered at a dose of 2 μg/kg of body mass, im, daily for […], and a repeat (identical) course of treatment was administered 10 days after termination of the first course.

[3] = Group 1A chronic pyoderma, after L-Glu-L-Trp Therapy (n = 16)
[4] = Non-Responders, After L-Glu-L-Trp (n = 7)
[5] = Responders, L-Glu-L-Trp Therapy (n = 12)

## L-Glu-L-Trp
influenza
  Clinical outcome: normalization of fever, reduction in toxic symptoms
[1]; [3]
  B-Lymphocytes: 0.15 ± 0 ×10^9/L
  B-Lymphocytes % Normal Value: (31%)
  B-Lymphocytes (%): 7 ± 3%
  Basophils (%): 0.01 ± 0%
  Eosinophils (%): 4.2 ± 1%
  Erythrocyte (sed. rate mm): 13.1 ± 1 mm
  Erythrocytes: 4.2 ± 0.1 10^12/L
  IgA: 2.7 ± 1 g/L
  IgA % Normal Value: (143%)
  IgG: 16.2 ± 1 g/L
  IgG % Normal Value: (150%)
  IgM: 1 ± 0 g/L
  IgM % Normal Value: (65%)
  Leukocytes: 8.7 ± 0.5 ×10^9/L
  Leukocytes % Normal Value: (130%)
  Lymphocytes: 2.0 ± 0.2 ×10^9/L
  Lymphocytes % Normal Value: (71%)
  Lymphocytes, %: 25.9 ± 2.2%
  Monocytes, %: 4.5 ± 1%
  Neutrophils, %: 63.8 ± 4%
  T-Lymphocytes: 1.15 ± 0 ×10^9/L
  T-Lymphocytes % Normal Value: (68%)
  T-Lymphocytes (%): 52.3 ± 5%
  T-helper: 0.92 ± 0.09 ×10^9/L
  T-helper % Normal Value: (70%)
  T-helper (%): 45.4 ± 4.9%
  T-suppressor: 0.51 ± 0 ×10^9/L
  T-suppressor % Normal Value: (131%)
  T-suppressor (%): 28.2 ± 4%
[1]; Group 1A, L-Glu-L-Trp Therapy
  Blast Transform., Con-A: 62.8 ± 8 % of PBL
  Blast Transform., PHA: 42.7 ± 7 % of PBL
  Blast Transform., Staph-A: 85.6 ± 9 % of PBL
[2]; 1 mg/mL
  Percentage of E-RFC: statistically significant increase in the percentage of E-RFC
[2]; Conc. 0.0001 mg/ml
  E-RFC (%): 50.3 ± 4.2%
[2]; Conc. 0.01 mg/ml
  E-RFC (%): 47.8 ± 3.9%
[2]; Conc. 1 mg/ml
  E-RFC (%): 54.6 ± 4.2 %
Hepatitis B; Group 1, Pre-Treatment ALCT Activity None
  Percent of Subjects Disease Free at 6 Months After Treatment: 100%
Hepatitis B; Group 2, Pre-Treatment ALCT Activity Moderate
  Percent of Subjects Disease Free at 6 Months After Treatment: 80%
Hepatitis B; Group 3, Pre-Treatment ALCT Activity High
  Percent of Subjects Disease Free at 6 Months After Treatment: 0%
Hepatitis B; [4]
  ALCT Cytotoxic Index: 44.55 ± 6.8
  ALCT: % of subjects: 57.14 ± 18.7%
  Ratio OKT4^+/OKT8^+: 0.82 ± 0.07
  T-Lymphocytes (E-RFC): 1382 ± 76 ×10^9
  T-Lymphocytes (E-RFC) % Normal Value: (85%)
  T-Lymphocytes (E-RFC) % of PBL: 56.7 ± 3.24 % of PBL
Hepatitis B; [5]
  ALCT Cytotoxic Index: 50.4 ± 5.5
  ALCT: % of subjects: 16.7 ± 13.2%
  Ratio OKT4^+/OKT8^+: 1.08 ± 0.07
  T-Lymphocytes (E-RFC): 1227 ± 65 ×10^9
  T-Lymphocytes (E-RFC) % Normal Value: (76%)
  T-Lymphocytes (E-RFC) % of PBL: 47.33 ± 2.2 % of PBL
Hepatitis B; highest ALCT levels
  Stable remission over 6 months: 0%
Hepatitis B; in vivo
  Patients with increased E-RFC T-lymphocytes and ADCC decreased to normal (responders): about 63%
Hepatitis B; moderate ALCT activity
  Stable remission over 6 months: 80%
Hepatitis B; patients lacking demonstrable ALCT
  Stable remission over 6 months: One hundred percent
